Assay results taken from ChEMBL document CHEMBL3232896, “Biological evaluation of new mimetics of annonaceous acetogenins: alteration of right scaffold by click linkage with aromatic functionalities” (Eur J Med Chem, 2014).

Tests used:
[1] = Antiproliferative activity against human SGC7901 cells assessed as growth inhibition after 72 hrs by MTT assay; type: functional; details: SGC-7901, 72 h
[2] = system: HCT-116; experiment: Antiproliferative activity against human HCT116 cells assessed as growth inhibition after 72 hrs by MTT assay; type: functional; details: HCT-116, 72 h
[3] = Antiproliferative activity against human HLF assessed as growth inhibition after 72 hrs by MTT assay; details: HLF cells

SMILES	GI50 [2]	GI50 [1]	GI50 at 72 h [3]
COC1=C(C)C(=O)C(CCCCCCCCCCn2cc(C[C@H](O)COCCOC[C@@H](O)Cc3ccc(-c4ccccc4)cc3)nn2)=C(C)C1=O	4 µM	0.505 µM	35.1 µM
COc1cccc2c1C(=O)c1c(O)c3c(c(O)c1C2=O)C[C@@](O)(C(=O)CO)C[C@@H]3O[C@H]1C[C@H](N)[C@H](O)[C@H](C)O1 [DOXORUBICIN]	0.15 µM	0.55 µM	0.33 µM
O[C@H](COCCOC[C@@H](O)Cc1cn(Cc2ccc(C(F)(F)F)cc2)nn1)Cc1ccc(-c2ccccc2)cc1	2.5 µM	8.7 µM	29.8 µM
O[C@H](COCCOC[C@@H](O)Cc1cn(-c2ccc(N3CCOCC3)cc2)nn1)Cc1ccc(-c2ccccc2)cc1	8.3 µM	20.7 µM	> 100 µM
O[C@H](COCCOC[C@@H](O)Cc1cn(-c2cccs2)nn1)Cc1ccc(-c2ccccc2)cc1	33.4 µM	33.4 µM	> 100 µM
O[C@H](COCCOC[C@@H](O)Cc1cn(-c2ccc3c(c2)OCCO3)nn1)Cc1ccc(-c2ccccc2)cc1	16.5 µM	6.4 µM	5.2 µM
O[C@H](COCCOC[C@@H](O)Cc1cn(-c2ccc3[nH]ccc3c2)nn1)Cc1ccc(-c2ccccc2)cc1	15.5 µM	45.6 µM	> 100 µM
O[C@H](COCCOC[C@@H](O)Cc1cn(-c2cncc3ccccc23)nn1)Cc1ccc(-c2ccccc2)cc1	17.8 µM	29.3 µM	10.8 µM
CC1=C(CCCCCCCCCCn2cc(C[C@H](O)COCCOC[C@@H](O)Cc3ccc(-c4ccccc4)cc3)nn2)C(=O)c2ccccc2C1=O	3 µM	0.39 µM	22.6 µM
COC1=C(OC)C(=O)C(CCCCCCCCCCCCCCCn2cc(C[C@H](O)COCCOC[C@@H](O)Cc3ccc(-c4ccccc4)cc3)nn2)=C(C)C1=O	1.5 µM	2.49 µM	> 50 µM
O[C@H](COCCOC[C@@H](O)Cc1cn(Cc2ccc3ccccc3c2)nn1)Cc1ccc(-c2ccccc2)cc1	8.6 µM	12.1 µM	19.8 µM
O[C@H](COCCOC[C@@H](O)Cc1c[nH]nn1)Cc1ccc(-c2ccccc2)cc1	> 100 µM	> 100 µM	> 100 µM
O[C@H](COCCOC[C@@H](O)Cc1cn(-c2cccnc2)nn1)Cc1ccc(-c2ccccc2)cc1	46.8 µM	29.8 µM	> 100 µM

Further lines, with some results ahead:

GI50 [2]	SMILES	GI50 [1]	GI50 at 72 h [3]
5 µM	COC1=C(OC)C(=O)C(CCCCCCn2cc(C[C@H](O)COCCOC[C@@H](O)Cc3ccc(-c4ccccc4)cc3)nn2)=C(C)C1=O	16.6 µM	> 50 µM
0.181 µM	CCCCCCCCCC[C@H](O)COCCOC[C@@H](O)CCCCCCCCCCCCC1=C[C@H](C)OC1=O	0.076 µM	27.8 µM
0.6 µM	COC1=C(OC)C(=O)C(CCCCCCCCCCn2cc(C[C@H](O)COCCOC[C@@H](O)Cc3ccc(-c4ccccc4)cc3)nn2)=C(C)C1=O	3.8 µM	18.3 µM
42.5 µM	O=C1COc2ccc(-n3cc(C[C@H](O)COCCOC[C@@H](O)Cc4ccc(-c5ccccc5)cc4)nn3)cc2N1	15.2 µM	> 100 µM
7.2 µM	O[C@H](COCCOC[C@@H](O)Cc1cn(Cc2cccc(-c3ccccc3)c2)nn1)Cc1ccc(-c2ccccc2)cc1	10.6 µM	> 100 µM
0.9 µM	CC1=C(C)C(=O)C(CCCCCCCCCCn2cc(C[C@H](O)COCCOC[C@@H](O)Cc3ccc(-c4ccccc4)cc3)nn2)=C(C)C1=O	0.35 µM	> 25 µM
3.4 µM	O[C@H](COCCOC[C@@H](O)Cc1cn(Cc2ccc(Oc3ccccc3)cc2)nn1)Cc1ccc(-c2ccccc2)cc1	4.5 µM	22.8 µM
9.2 µM	O=c1[nH]c2ccc(-n3cc(C[C@H](O)COCCOC[C@@H](O)Cc4ccc(-c5ccccc5)cc4)nn3)cc2s1	10.5 µM	47.7 µM
8.8 µM	N#Cc1ccc(Cn2cc(C[C@H](O)COCCOC[C@@H](O)Cc3ccc(-c4ccccc4)cc3)nn2)cc1	7.7 µM	36.6 µM
> 100 µM	O[C@H](COCCOC[C@@H](O)Cc1cn(-c2cncnc2)nn1)Cc1ccc(-c2ccccc2)cc1	> 100 µM	> 100 µM
